1 substance from US11267840B1, “Compound or salt thereof” (M.T.3, Inc., priority 2020, dated 2022) can be followed below.

Data set [1] addresses T1, lipase for organic synthesis (Lipase PS Amano SD) (Burkholderia cepacia, UniProt P22088).
T1 construct: purchased FUJIFILM Wako Pure Chemical Corporation
In kind it is in vitro ADME. As to the method:
The test compound and lipase for organic synthesis (Lipase PS Amano SD, manufactured by FUJIFILM Wako Pure Chemical Corporation) were each adjusted using PBS so as to have a concentration of 1.3 μg/μL. Next, the thus obtained reaction solution was developed by TLC using an eluent (chloroform:methanol=1:1) and was analyzed. A sample that was taken before reaction progressed, a sample that was taken when 2 hours elapsed, and a sample that was taken when 4 hours elapsed were each used as the reaction solution to be developed. As for the reaction solution in which the compound (A) was used as the test compound, analysis was also performed on a sample that was taken when 18 hours elapsed from the start of reaction. TLC aluminum sheet silica gel 60 F254 (manufactured by Merck) was used as the TLC.

Data set [2] has as its system adenocarcinomic human alveolar basal epithelial cell line A549 cells. As to the kind of experiment: ROS production in A549 cells (CellROX Green fluorescence), test as candidate compound for radiosensitizer. Format: cell-based. The conditions noted are these: 1 hour with test compound, CellROX Green 30 minutes, excitation 485 nm, detection 520 nm, FIG. 19. The method, then: Fetal bovine serum (FBS) (manufactured by Sigma-Aldrich) was added to RPMI1640 (manufactured by Sigma-Aldrich) such that a final concentration was 10%. Further, penicillin G potassium (manufactured by Meiji Seika) and Streptomycin (manufactured by Meiji Seika) were each added in an amount of 0.1 mg/mL, and the thus obtained solution was used as a culture medium in the following test. Also, a CellROX Green Reagent solution (manufactured by Thermo Fisher Scientific) was used as a reagent.
Adenocarcinomic human alveolar basal epithelial cell line A549 cells were suspended in the RPMI1640 medium (1.0×10^5 cells/mL), and the suspension was poured into a 96-well plate in an amount of 100 μL for each well. Thereafter, the cells were cultivated under a 5% CO2 moisture-saturated condition at 37° C. so as to attach to the plate, and after the cultivation was performed for 24 hours, the medium was removed by suction and the cells were washed with PBS. Next, 100 μL of PBS and 100 μL of a suspension of the test compound suspended in PBS ([…]) were separately added. […] After the cultivation was performed for 30 minutes, washing was performed using PBS, and fluorescence intensity at an excitation wavelength of 485 nm and a detection wavelength of 520 nm was measured.

T1 sequence (P22088 45-364): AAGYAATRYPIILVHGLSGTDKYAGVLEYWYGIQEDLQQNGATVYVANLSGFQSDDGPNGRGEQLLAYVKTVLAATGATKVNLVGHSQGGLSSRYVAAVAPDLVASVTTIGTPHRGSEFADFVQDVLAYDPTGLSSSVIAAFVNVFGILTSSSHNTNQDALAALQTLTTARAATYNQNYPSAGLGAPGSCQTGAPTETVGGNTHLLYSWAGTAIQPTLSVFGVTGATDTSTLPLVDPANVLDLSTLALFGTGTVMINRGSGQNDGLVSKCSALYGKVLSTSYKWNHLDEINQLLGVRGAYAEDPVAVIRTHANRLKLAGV

For the substance “3-(n-octadecyloxy)-n-propyl-α-D-quinovopyranoside sodium salt [compound (A)]”, in data set [1] (lipase, overall conclusion of FIG. 20), the “resistance to hydrolysis compared with the sulfopyranosylacyl propanediol derivative” value is “more excellent resistance to hydrolysis”. Moreover, the “decomposition of the test compound by lipase (TLC)” value in data set [1] (when 18 hours elapsed from the start of reaction, compound and lipase each 1.3 μg/μL in PBS, FIG. 20) is on record as “not completely decomposed”. Also, in data set [2], the “ROS production (ROS production ratio, fluorescence intensity relative to PBS only = 1)” value is on record as “induced production of the ROS”.
